# Experimental data: patent US9670161B2, “5-fluoro-N-(pyridin-2-yl)pyridin-2-amine derivatives containing a sulfone group” (BAYER PHARMA AKTIENGESELLSCHAFT, priority 2012, dated 2017)
# What was measured:
# [1] = test system: HeLa, human cervical tumour cells; assay: Proliferation assay, HeLa (crystal violet); format: cell-based; settings: 96 h, 4 days, read-out: Inhibition of HeLa cell proliferation IC50
# Protocol: Cultivated tumour cells (HeLa, human cervical tumour cells, ATCC CCL-2; NCI-H460, human non-small cell lung carcinoma cells, ATCC HTB-177; A2780, human ovarian carcinoma cells, ECACC #93112519; DU 145, hormone-independent human prostate carcinoma cells, ATCC HTB-81; HeLa-MaTu-ADR, multidrug-resistant human cervical carcinoma cells, EPO-GmbH Berlin; Caco-2, human colorectal carcinoma cells, ATCC HTB-37; B16F10, mouse melanoma cells, ATCC CRL-6475) were plated at a density of 5,000 cells/well (DU145, HeLa-MaTu-ADR), 3,000 cells/well (NCI-H460, HeLa), 2,500 cells/well (A2780), 1,500 cells/well (Caco-2), or 1,000 cells/well (B16F10) in a 96-well multititer plate in 200 μL of their respective growth medium supplemented 10% fetal calf serum. After 24 hours, the cells of one plate (zero-point plate) were stained with crystal violet (see below), while the medium of the other plates was replaced by fresh culture medium (200 μl), to which the test substances were added in various concentrations (0 μM, as well as in the range of 0.001-10 μM; the final concentration of the solvent dimethyl sulfoxide was 0.5%). The cells were incubated for 4 days in the presence of test substances. Cell proliferation was determined by staining the cells with crystal violet: the cells were fixed by adding 20 μl/measuring point of an 11% glutaric aldehyde solution for 15 minutes at room temperature. After three washing cycles of the fixed cells with water, the plates were dried at room temperature. The cells were stained by adding 100 μl/measuring point of a 0.1% crystal violet solution (pH 3.0). After three washing cycles of the stained cells with water, the plates were dried at room temperature. The dye was dissolved by adding 100 μl/measuring point of a 10% acetic acid solution. The extinction was determined by photometry at a wavelength of 595 nm. The change of cell number, in percent, was calculated by normalization of the measured values to the extinction values of the zero-point plate (=0%) and the extinction of the untreated (0 μm) cells (=100%). The IC50 values (inhibitory concentration at 50% of maximal effect) were determined by means of a 4 parameter fit.
# CDK9/CycT1 = CDK9/CycT1 (Homo sapiens (Human), UniProt P50750); assay: CDK9/CycT1 kinase assay (TR-FRET, 10 μM ATP); format: biochemical; settings: Method 1a
# From the text: 1a. CDK9/CycT1 Kinase Assay:
# CDK9/CycT1-inhibitory activity of compounds of the present invention was quantified employing the CDK9/CycT1 TR-FRET assay as described in the following paragraphs:
# Recombinant full-length His-tagged human CDK9 and CycT1, expressed in insect cells and purified by Ni-NTA affinity chromatography, were purchased from Invitrogen (Cat. No PV4131). As substrate for the kinase reaction biotinylated peptide biotin-Ttds-YISPLKSPYKISEG (C-terminus in amid form) was used which can be purchased e.g. form the company JERINI Peptide Technologies (Berlin, Germany).
# For the assay 50 nl of a 100 fold concentrated solution of the test compound in DMSO was pipetted into a black low volume 384 well microtiter plate (Greiner Bio-One, Frickenhausen, Germany), 2 μl of a solution of CDK9/CycT1 in aqueous assay buffer [50 mM Tris/HCl pH 8.0, 10 mM MgCl2, 1.0 mM dithiothreitol, 0.1 mM sodium ortho-vanadate, 0.01% (v/v) Nonidet-P40 (Sigma)] were added and the mixture was incubated for 15 min at 22° C. to allow pre-binding of the test compounds to the enzyme before the start of the kinase reaction. Then the kinase reaction was started by the addition of 3 μl of a solution of adenosine-tri-phosphate (ATP, 16.7 μM=>final conc. in the 5 μl assay volume is 10 μM) and substrate (1.67 μM=>final conc. in the 5 μl assay volume is 1 μM) in assay buffer and the resulting mixture was incubated for a reaction time of 25 min at 22° C. The concentration of CDK9/CycT1 was adjusted depending of the activity of the enzyme lot and was chosen appropriate to have the assay in the linear range, typical concentrations were in the range of 1 μg/mL. The reaction was stopped by the addition of 5 μl of a solution of TR-FRET detection reagents (0.2 μM streptavidine-XL665 [Cisbio Bioassays, Codolet, France] and 1 nM anti-RB(pSer807/pSer811)-antibody from BD Pharmingen [#558389] and 1.2 nM LANCE EU-W1024 labeled anti-mouse IgG antibody [Perkin-Elmer, product no. AD0077]) in an aqueous EDTA-solution (100 mM EDTA, 0.2% (w/v) bovine serum albumin in 100 mM HEPES/NaOH pH 7.0).
# The resulting mixture was incubated 1 h at 22° C. to allow the formation of complex between the phosphorylated biotinylated peptide and the detection reagents. Subsequently the amount of phosphorylated substrate was evaluated by measurement of the resonance energy transfer from the Eu-chelate to the streptavidine-XL. Therefore, the fluorescence emissions at 620 nm and 665 nm after excitation at 350 nm was measured in a HTRF reader, e.g. a Rubystar (BMG Labtechnologies, Offenburg, Germany) or a Viewlux (Perkin-Elmer). The ratio of the emissions at 665 nm and at […] was taken as the measure for the amount of phosphorylated substrate. The data were normalised (enzyme reaction without inhibitor=0% inhibition, all other assay components but no enzyme=100% inhibition).
# Sequence of CDK9/CycT1 (P50750 whole entry): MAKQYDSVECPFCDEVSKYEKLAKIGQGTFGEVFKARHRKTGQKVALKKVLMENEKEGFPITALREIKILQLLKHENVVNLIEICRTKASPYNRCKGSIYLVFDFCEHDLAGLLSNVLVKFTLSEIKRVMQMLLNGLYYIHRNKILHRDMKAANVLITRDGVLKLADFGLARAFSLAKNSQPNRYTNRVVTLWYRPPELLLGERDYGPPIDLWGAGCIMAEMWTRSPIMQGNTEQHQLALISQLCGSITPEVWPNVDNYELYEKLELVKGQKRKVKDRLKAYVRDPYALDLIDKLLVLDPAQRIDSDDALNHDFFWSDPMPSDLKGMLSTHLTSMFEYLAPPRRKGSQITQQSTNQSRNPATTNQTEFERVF
# Sequence of CDK9/CycT1 (O60563 whole entry partner): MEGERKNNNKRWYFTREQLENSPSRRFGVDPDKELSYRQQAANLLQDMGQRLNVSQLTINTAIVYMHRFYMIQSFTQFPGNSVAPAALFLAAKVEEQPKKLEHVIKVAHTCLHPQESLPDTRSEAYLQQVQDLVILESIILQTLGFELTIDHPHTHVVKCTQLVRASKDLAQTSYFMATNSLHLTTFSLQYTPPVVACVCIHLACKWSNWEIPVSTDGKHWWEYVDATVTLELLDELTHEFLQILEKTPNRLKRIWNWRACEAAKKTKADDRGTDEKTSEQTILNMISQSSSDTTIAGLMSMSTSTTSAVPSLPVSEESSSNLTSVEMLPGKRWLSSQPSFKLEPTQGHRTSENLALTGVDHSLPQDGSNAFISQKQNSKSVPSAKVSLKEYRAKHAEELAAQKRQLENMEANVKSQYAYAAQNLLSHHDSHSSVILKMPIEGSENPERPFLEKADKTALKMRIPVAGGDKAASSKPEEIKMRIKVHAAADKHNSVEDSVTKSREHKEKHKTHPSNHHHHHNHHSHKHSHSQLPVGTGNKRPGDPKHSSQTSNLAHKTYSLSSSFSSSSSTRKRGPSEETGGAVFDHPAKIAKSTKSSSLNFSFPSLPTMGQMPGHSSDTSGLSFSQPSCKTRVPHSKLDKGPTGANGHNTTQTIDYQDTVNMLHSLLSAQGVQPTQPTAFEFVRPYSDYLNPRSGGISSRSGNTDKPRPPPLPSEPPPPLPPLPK
IC50 [1] [nM],IC50 (CDK9/CycT1) [nM],Structure (SMILES)
84,2,"COc1cc(F)ccc1-c1cc(Nc2cc(CS(C)(=O)=O)ccn2)ncc1F [Example 1, 5-Fluoro-4-(4-fluoro-2-methoxyphenyl)-N-{4-[(methylsulfonyl)methyl]pyridin-2-yl}pyridin-2-amine]"
37,3,"COc1cc(F)ccc1-c1cc(Nc2cc(CS(C)(=O)=O)cc(C)n2)ncc1F [Example 2, 5-Fluoro-4-(4-fluoro-2-methoxyphenyl)-N-{6-methyl-4-[(methylsulfonyl)methyl]pyridin-2-yl}pyridin-2-amine]"
100,3,"COc1cc(F)ccc1-c1cc(Nc2cc(CS(C)(=O)=O)cc(F)n2)ncc1F [Example 3, 5-Fluoro-4-(4-fluoro-2-methoxyphenyl)-N-{6-fluoro-4-[(methylsulfonyl)methyl]pyridin-2-yl}pyridin-2-amine]"
16,4,"COc1cc(F)ccc1-c1cc(Nc2cc(CS(C)(=O)=O)cc(C(F)(F)F)n2)ncc1F [Example 4, 5-Fluoro-4-(4-fluoro-2-methoxyphenyl)-N-{4-[(methylsulfonyl)methyl]-6-(trifluoromethyl)pyridin-2-yl}pyridin-2-amine]"
< 30,2,"COc1cc(F)ccc1-c1cc(Nc2cc(CS(C)(=O)=O)cc(C(F)F)n2)ncc1F [Example 5, N-{6-(Difluoromethyl)-4-[(methylsulfonyl)methyl]pyridin-2-yl}-5-fluoro-4-(4-fluoro-2-methoxyphenyl)pyridin-2-amine]"
